Experimental data as given in PubChem BioAssay (NCI).
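Grown in 96-well plates, cells were treated for 48 hours with each compound at five concentrations. Insufficient inhibition: endpoint recorded as highest concentration tested. At the GI50, growth is halved. TGI denotes the concentration required for complete inhibition of growth.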

Assays:
Test in all cases: NCI-60 cell line screen, 48 h
786-0 renal = system: 786-0 renal
A498 renal = system: A498 renal
A549 NSCLC = system: A549 NSCLC
ACHN renal = system: ACHN renal
BT-549 breast = system: BT-549 breast
CAKI-1 renal = system: CAKI-1 renal
COLO 205 colon = system: COLO 205 colon
DU-145 prostate = system: DU-145 prostate
EKVX NSCLC = system: EKVX NSCLC
HCC-2998 colon = system: HCC-2998 colon
HCT-116 colon = system: HCT-116 colon
HCT-15 colon = system: HCT-15 colon
HL-60(TB) leukemia = system: HL-60(TB) leukemia
HOP-62 NSCLC = system: HOP-62 NSCLC
HOP-92 NSCLC = system: HOP-92 NSCLC
HS 578T breast = system: HS 578T breast
HT29 colon = system: HT29 colon
IGROV1 ovarian = system: IGROV1 ovarian
K-562 leukemia = system: K-562 leukemia
KM12 colon = system: KM12 colon
M14 melanoma = system: M14 melanoma
MALME-3M melanoma = system: MALME-3M melanoma
MCF7 breast = system: MCF7 breast
MDA-MB-231 breast = system: MDA-MB-231 breast
MDA-MB-435 = system: MDA-MB-435
MOLT-4 leukemia = system: MOLT-4 leukemia
NCI-H226 lung = system: NCI-H226 lung
NCI-H460 lung = system: NCI-H460 lung
NCI-H522 lung = system: NCI-H522 lung
NCI/ADR-RES ovarian = system: NCI/ADR-RES ovarian
OVCAR-3 ovarian = system: OVCAR-3 ovarian
OVCAR-4 ovarian = system: OVCAR-4 ovarian
OVCAR-5 ovarian = system: OVCAR-5 ovarian
OVCAR-8 ovarian = system: OVCAR-8 ovarian
PC-3 prostate = system: PC-3 prostate
RPMI-8226 leukemia = system: RPMI-8226 leukemia
RXF 393 renal = system: RXF 393 renal
SF-268 CNS = system: SF-268 CNS
SF-295 CNS = system: SF-295 CNS
SF-539 CNS = system: SF-539 CNS
SK-MEL-2 melanoma = system: SK-MEL-2 melanoma
SK-MEL-28 melanoma = system: SK-MEL-28 melanoma
SK-MEL-5 melanoma = system: SK-MEL-5 melanoma
SK-OV-3 ovarian = system: SK-OV-3 ovarian
SN12C renal = system: SN12C renal
SNB-19 CNS = system: SNB-19 CNS
SNB-75 CNS = system: SNB-75 CNS
T-47D breast = system: T-47D breast
TK-10 renal = system: TK-10 renal
U251 CNS = system: U251 CNS
UACC-257 melanoma = system: UACC-257 melanoma
UACC-62 melanoma = system: UACC-62 melanoma
UO-31 renal = system: UO-31 renal

C=C1C(=O)O[C@H]2[C@H]1CC/C(COC(=O)/C=C/C(=O)NCc1ccc(Cn3c(=O)sn(-c4ccccc4)c3=O)cc1)=C\CC[C@@]1(C)O[C@@H]21
GI50 (786-0 renal): 1.61 µM | TGI (786-0 renal): 3.33 µM | GI50 (A498 renal): 3.45 µM | TGI (A498 renal): 9.55 µM | GI50 (A549 NSCLC): 17.2 µM | TGI (A549 NSCLC): 37 µM | GI50 (ACHN renal): 1.84 µM | TGI (ACHN renal): 3.78 µM | GI50 (BT-549 breast): 1.55 µM | TGI (BT-549 breast): 2.91 µM | GI50 (CAKI-1 renal): 11.7 µM | TGI (CAKI-1 renal): 24.4 µM | GI50 (COLO 205 colon): 1.74 µM | TGI (COLO 205 colon): 3.47 µM | GI50 (DU-145 prostate): 1.95 µM | TGI (DU-145 prostate): 4.07 µM | GI50 (EKVX NSCLC): 4.82 µM | TGI (EKVX NSCLC): 17.6 µM | GI50 (HCC-2998 colon): 2.11 µM | TGI (HCC-2998 colon): 4.46 µM | GI50 (HCT-116 colon): 0.382 µM | TGI (HCT-116 colon): 1.44 µM | GI50 (HCT-15 colon): 3.22 µM | TGI (HCT-15 colon): 13.6 µM | GI50 (HL-60(TB) leukemia): 0.925 µM | TGI (HL-60(TB) leukemia): 5.3 µM | GI50 (HOP-62 NSCLC): 13.2 µM | TGI (HOP-62 NSCLC): 27.1 µM | GI50 (HOP-92 NSCLC): 1.85 µM | TGI (HOP-92 NSCLC): 3.55 µM | GI50 (HS 578T breast): 3.95 µM | TGI (HS 578T breast): 35.4 µM | GI50 (HT29 colon): 1.86 µM | TGI (HT29 colon): 3.84 µM | GI50 (IGROV1 ovarian): 2.44 µM | TGI (IGROV1 ovarian): 7.24 µM | GI50 (K-562 leukemia): 0.501 µM | TGI (K-562 leukemia): 18.4 µM | GI50 (KM12 colon): 2.96 µM | TGI (KM12 colon): 11.6 µM | GI50 (M14 melanoma): 1.86 µM | TGI (M14 melanoma): 4.37 µM | GI50 (MALME-3M melanoma): 0.933 µM | TGI (MALME-3M melanoma): 2.41 µM | GI50 (MCF7 breast): 1.75 µM | TGI (MCF7 breast): 7.72 µM | GI50 (MDA-MB-231 breast): 2.02 µM | TGI (MDA-MB-231 breast): 3.98 µM | GI50 (MDA-MB-435): 1.73 µM | TGI (MDA-MB-435): 3.44 µM | GI50 (MOLT-4 leukemia): 1.14 µM | TGI (MOLT-4 leukemia): 5.2 µM | GI50 (NCI-H226 lung): 14.6 µM | TGI (NCI-H226 lung): 32.8 µM | GI50 (NCI-H460 lung): 5.28 µM | TGI (NCI-H460 lung): 22.2 µM | GI50 (NCI-H522 lung): 0.406 µM | TGI (NCI-H522 lung): 1.77 µM | GI50 (NCI/ADR-RES ovarian): 47.8 µM | TGI (NCI/ADR-RES ovarian): > 100 µM | GI50 (OVCAR-3 ovarian): 0.519 µM | TGI (OVCAR-3 ovarian): 1.72 µM | GI50 (OVCAR-4 ovarian): 2.69 µM | TGI (OVCAR-4 ovarian): 8.09 µM | GI50 (OVCAR-5 ovarian): 2.69 µM | TGI (OVCAR-5 ovarian): 5.8 µM | GI50 (OVCAR-8 ovarian): 2.32 µM | TGI (OVCAR-8 ovarian): 5.39 µM | GI50 (PC-3 prostate): 2.84 µM | TGI (PC-3 prostate): 9.54 µM | GI50 (RPMI-8226 leukemia): 1.21 µM | TGI (RPMI-8226 leukemia): 4.78 µM | GI50 (RXF 393 renal): 1.43 µM | TGI (RXF 393 renal): 2.83 µM | GI50 (SF-268 CNS): 2.67 µM | TGI (SF-268 CNS): 10.9 µM | GI50 (SF-295 CNS): 18.3 µM | TGI (SF-295 CNS): 32.7 µM | GI50 (SF-539 CNS): 1.84 µM | TGI (SF-539 CNS): 3.45 µM | GI50 (SK-MEL-2 melanoma): 2.22 µM | TGI (SK-MEL-2 melanoma): 5.57 µM | GI50 (SK-MEL-28 melanoma): 1.74 µM | TGI (SK-MEL-28 melanoma): 3.28 µM | GI50 (SK-MEL-5 melanoma): 2.36 µM | TGI (SK-MEL-5 melanoma): 6.27 µM | GI50 (SK-OV-3 ovarian): 30.3 µM | TGI (SK-OV-3 ovarian): > 100 µM | GI50 (SN12C renal): 2.16 µM | TGI (SN12C renal): 5.95 µM | GI50 (SNB-19 CNS): 4.8 µM | TGI (SNB-19 CNS): 19.4 µM | GI50 (SNB-75 CNS): 3.41 µM | TGI (SNB-75 CNS): 15.2 µM | GI50 (T-47D breast): 2.22 µM | TGI (T-47D breast): 7.21 µM | GI50 (TK-10 renal): 1.92 µM | TGI (TK-10 renal): 3.85 µM | GI50 (U251 CNS): 3.46 µM | TGI (U251 CNS): 12.1 µM | GI50 (UACC-257 melanoma): 1.74 µM | TGI (UACC-257 melanoma): 4.07 µM | GI50 (UACC-62 melanoma): 1.61 µM | TGI (UACC-62 melanoma): 3.26 µM | GI50 (UO-31 renal): 2.19 µM | TGI (UO-31 renal): 5.09 µM
